Laboratory results as given in article PMC5707067, “Farnesyl phenolic enantiomers as natural MTH1 inhibitors from Ganoderma sinense” (Oncotarget, 2017).

How the values were obtained:
SW620 cells = test: Apoptosis analysis (Annexin V/PI flow cytometry); type: cell-based, human; details: 24 hours, control group 12.03%
Method: The apoptosis of cells induced by compounds was further investigated. SW620 cells were pretreated with series concentration of compound 1 for 24 hours. The number of apoptosis cells was quantified by flow cytometry.
Figure 5 Compound 1 induced DNA damage and hindered the replication of DNA in cancer cells causing cell apoptosis (A) SW620 cells were treated with 0, 50 or 150 μM of compound 1 and then processed for FACS by using Annexin V/propidium iodide staining. (B, C) Immunofluorescence staining analysis of EDU^+ and quantification of EDU^+ in SW620 cells treated with 0, 50 or 150 μM of compound 1. Stained graphs were observed through a fluorescence microscope (× 200 magnification). Bar = 20 μm. Data are shown as mean ± s.d. (n = 3). (D, E, F) Immunofluorescence staining analysis of 53BP1 and quantification of 53BP1 foci formation in SW620 treated for 24 h with 50 μM of compound 1. It was observed through a confocal microscope (× 400 magnification). Bar = 50 μm Data are shown as mean ± s.d. (n = 3). […]
Apoptotic cells were staining with Annexin-V-FITC and Propidium Iodide (PI) (Annexin V-FITC/PI double staining cell apoptosis detection kit) following the manufacturer's protocol. Fluorescence was recorded by flow cytometry using the FACSort (BD Bio sciences).

[1] = test system: MTH1 siRNA transfected SW620 cells; test: CCK8 growth assay in MTH1 siRNA transfected cells; type: cell-based, human
Method: In order to study whether the cytotoxicity of the farnesyl phenolic compounds was due to the inhibition of MTH1, the expression of endogenous MTH1 was knocked down in cancer cells. SW620 cell lines were transfected with MTH1 siRNA (#1, #2 and #3), [2] while the control was transfected with non-targeting siRNA (NT). The expression levels of MTH1 were measured by Western blot assay (Figure 6A and 6B), both siRNA #2 and #3 knocked down expressions of MTH1 in SW620 cells. The effects of compound 1 on the growth of MTH1 siRNA (#2 and #3) and non-targeting siRNA transfected cells were assessed by CCK8 assay.
Figure 6 The specific binding of compound 1 to the MTH1 protein leads to cell growth inhibition (A, B) Western blot analysis and optical density analysis for the expression of MTH1 for the siRNA transfected cells. MTH1 siRNA #2 and #3 were both knocked down in SW620 cells compared with the non-target siRNA (NT). (C) The effects of compound 1 on the growth of MTH1 siRNA (#2 and #3) and non-targeting siRNA transfected cells were assessed by CCK8 assay. […] (D) The effects of compounds 1 on normal tissue cell lines [human hepatic cells (Lo2), African green monkey kidney vero cells (Vero)]. (E, F) Cellular thermal shift assay (CETSA) confirmed the binding capacity of compound 1 with MTH1 at the cellular level. […]

MTH1 in SW620 cells = molecular target: T1, MTH1 in SW620 cells (Homo sapiens, UniProt P36639); test: Cellular thermal shift assay (CETSA); type: cell-based; details: 30 μM, 12 hours, 44-54°C, vs DMSO, Western blot
T1 construct: endogenous in cells; host or cells: SW620
Method: The cellular thermal shift assay (CETSA) was recently developed to further confirm the interaction between the target and the compound in vitro by Western blot assay. CETSA was applied based on the principles that the ligand binding gave rise to the thermal stabilization of target proteins. The thermal stability of MTH1 in SW620 cells was tested at the temperature range of 44-54°C after the pretreatment of compound 1 for 12 hours (Figure 6E and 6F). Correspondingly, the control cells were treated with DMSO. […] Compared with the control group, the thermal stability of MTH1 protein in compound 1 pretreated cells was better under the same temperature condition.
CETSA was developed as a method to directly detect the binding capacity of compounds with targets at the cellular level, based on the principle of ligand-induced target protein stabilization. […] Subsequently, cells were analysed by Western blot assay.
The harvested cells were lysed with liquid nitrogen and the freeze-thaw cycles were repeated twice. […] Proteins was quantified by Bradford reagent (Bio-Rad, USA). The same amount of proteins (20-40 μg) were loaded onto 15% SDS-PAGE gels and transferred to polyvinylidene difluoride membranes (PVDF) (Millipore, USA) and analyzed using the MTH1-antibody (Proteintech) at a concentration of 1: 500. […]

MTH1 = MTH1 (Homo sapiens, UniProt P36639); test: Microscale thermophoresis (MST) binding assay
Method: Microscale thermophoresis method (MST) was employed to assay the binding affinity between the compounds and MTH1. […] The dissociation constant Kd values were automatically calculated by using the NT Analysis software (Nano Temper Technologies, München, Germany).
Recombinant human MTH1 was labeled with the Monolith NT™ Protein Labeling Kit RED (Cat#L001) according to the supplied labeling protocol [32]. Labelled MTH1 was kept constant at 100 nM, while all samples tested were diluted in a 20 mM HEPES (pH 7.5) and 0.05 (v/v) % Tween-20. Compounds were diluted in 12 dilution steps covering the range from 500 μM to 200 nM. After 10 min incubation at room temperature about 37°C, samples were loaded into Monolith™ standard-treated capillaries and the thermophoresis was measured at 25°C after 30 min incubation on a Monolith NT.115 instrument (NanoTemper Technologies, München, Germany). Laser power was set to 20% using 30 seconds on-time. The LED power was set to 100%. The dissociation constant Kd values were fitted by using the NTAnalysis software (NanoTemper Technologies, München, Germany). The Kd value of the binding was obtained in two ways. The first way was calculated by thermophoresis curve when there was no fluorescent change during the initial fluorescence scanning. The second way was calculated from the initial fluorescence scanning curve when compounds bound in the sites which directly interfered the fluorescence.

In the case of `CO[C@]1(c2cc(O)cc(O)c2)C=C(CCCC(CO)CC/C=C(\C)COC(=O)/C=C/c2ccc(O)cc2)C(=O)O1` (stereo partly drawn) [Compound 1, (5R)-3-{9-[(E)-coumaroyl]-4-hydroxymethyl-8-methyl-7-nonene}-5-(3,5-dihydroxyphenyl)-5-methoxy-2(5H)-furanone], the “SW620 cells apoptotic death” value (SW620 cells; 50 μM) is reported as 45.09%, the “SW620 cells apoptotic death” value (SW620 cells; 150 μM) is reported as 91.11% and the “growth inhibition of MTH1 siRNA (#2 and #3) vs non-targeting siRNA transfected cells” value [1] is reported as “resistant to the growth inhibition”. For the same molecule, the “thermal stability of MTH1 protein” value (MTH1 in SW620 cells) was “better” and the Kd (MTH1) was 4.71 ± 0.686 µM.
